Assay results: ChEMBL document CHEMBL3351282, “An update on therapeutic opportunities offered by cancer glycolytic metabolism” (Bioorg Med Chem Lett, 2014)

Legend:
Pyruvate kinase PKM [1] = molecular target: T1, Pyruvate kinase PKM (Homo sapiens, UniProt P14618); assay: Activation of pyruvate kinase PKM2 (unknown origin)
Pyruvate kinase PKM [2] = molecular target: T1, Pyruvate kinase PKM; assay: Activation of pyruvate kinase PKM2 in human A549 cells; format: cell-based
Homo sapiens = species: Homo sapiens; assay: Inhibition of glucose transporter GLUT (unknown origin) by standard glucose uptake assay; settings: concentration not given here
[3] = Growth inhibition of human H1299 cells; format: functional, NCI-H1299
[4] = Cytotoxicity against human H1299 cells assessed as reduction in cell viability; format: functional, cell-based; settings: NCI-H1299
A549 = assay: Antitumor activity against human A549 cells in in-vivo xenograft model assessed as reduction in tumor volume at 10 mg/kg/day, ip; format: functional; settings: route intraperitoneal
[5] = molecular target: 6-phosphofructo-2-kinase/fructose-2,6-bisphosphatase 3 (Homo sapiens, UniProt Q16875); assay: Inhibition of PFKFB3 (unknown origin)
6-phosphofructo-2-kinase/fructose-2,6-bisphosphatase 3, sequence (Q16875 whole entry): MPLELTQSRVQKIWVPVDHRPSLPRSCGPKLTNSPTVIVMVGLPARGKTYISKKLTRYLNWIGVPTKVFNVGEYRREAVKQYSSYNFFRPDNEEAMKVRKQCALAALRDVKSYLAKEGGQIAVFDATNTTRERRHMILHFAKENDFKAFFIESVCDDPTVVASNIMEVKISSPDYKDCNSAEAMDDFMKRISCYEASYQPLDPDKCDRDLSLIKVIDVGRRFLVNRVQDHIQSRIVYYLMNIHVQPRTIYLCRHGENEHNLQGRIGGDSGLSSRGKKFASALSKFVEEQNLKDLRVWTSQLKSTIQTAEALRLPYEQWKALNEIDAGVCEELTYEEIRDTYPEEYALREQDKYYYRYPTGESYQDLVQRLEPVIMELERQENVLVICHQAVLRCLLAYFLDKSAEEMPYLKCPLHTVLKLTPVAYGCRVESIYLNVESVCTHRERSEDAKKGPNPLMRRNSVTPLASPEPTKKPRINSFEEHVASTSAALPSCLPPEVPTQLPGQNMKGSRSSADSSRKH

[6] = molecular target: T2, Monocarboxylate transporter 1 (Homo sapiens, UniProt P53985); assay: Binding affinity to MCT1 (unknown origin)
T2 sequence (P53985 whole entry): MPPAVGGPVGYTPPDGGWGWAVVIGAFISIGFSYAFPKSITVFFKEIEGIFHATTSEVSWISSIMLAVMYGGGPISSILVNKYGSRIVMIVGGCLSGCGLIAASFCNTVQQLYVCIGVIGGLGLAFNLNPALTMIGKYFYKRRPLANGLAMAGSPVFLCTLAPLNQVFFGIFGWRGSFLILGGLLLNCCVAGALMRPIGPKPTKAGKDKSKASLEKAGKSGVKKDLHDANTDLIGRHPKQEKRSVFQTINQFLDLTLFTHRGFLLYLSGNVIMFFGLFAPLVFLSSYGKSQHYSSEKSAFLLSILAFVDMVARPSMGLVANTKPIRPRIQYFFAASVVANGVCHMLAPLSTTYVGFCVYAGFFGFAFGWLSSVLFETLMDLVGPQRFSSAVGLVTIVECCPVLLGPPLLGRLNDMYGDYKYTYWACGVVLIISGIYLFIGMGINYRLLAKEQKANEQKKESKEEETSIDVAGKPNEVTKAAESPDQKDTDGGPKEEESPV

Hexokinase-2 = molecular target: T3, Hexokinase-2 (Homo sapiens, UniProt P52789); assay: Inhibition of hexokinase 2 (unknown origin)
T3 sequence (P52789 whole entry): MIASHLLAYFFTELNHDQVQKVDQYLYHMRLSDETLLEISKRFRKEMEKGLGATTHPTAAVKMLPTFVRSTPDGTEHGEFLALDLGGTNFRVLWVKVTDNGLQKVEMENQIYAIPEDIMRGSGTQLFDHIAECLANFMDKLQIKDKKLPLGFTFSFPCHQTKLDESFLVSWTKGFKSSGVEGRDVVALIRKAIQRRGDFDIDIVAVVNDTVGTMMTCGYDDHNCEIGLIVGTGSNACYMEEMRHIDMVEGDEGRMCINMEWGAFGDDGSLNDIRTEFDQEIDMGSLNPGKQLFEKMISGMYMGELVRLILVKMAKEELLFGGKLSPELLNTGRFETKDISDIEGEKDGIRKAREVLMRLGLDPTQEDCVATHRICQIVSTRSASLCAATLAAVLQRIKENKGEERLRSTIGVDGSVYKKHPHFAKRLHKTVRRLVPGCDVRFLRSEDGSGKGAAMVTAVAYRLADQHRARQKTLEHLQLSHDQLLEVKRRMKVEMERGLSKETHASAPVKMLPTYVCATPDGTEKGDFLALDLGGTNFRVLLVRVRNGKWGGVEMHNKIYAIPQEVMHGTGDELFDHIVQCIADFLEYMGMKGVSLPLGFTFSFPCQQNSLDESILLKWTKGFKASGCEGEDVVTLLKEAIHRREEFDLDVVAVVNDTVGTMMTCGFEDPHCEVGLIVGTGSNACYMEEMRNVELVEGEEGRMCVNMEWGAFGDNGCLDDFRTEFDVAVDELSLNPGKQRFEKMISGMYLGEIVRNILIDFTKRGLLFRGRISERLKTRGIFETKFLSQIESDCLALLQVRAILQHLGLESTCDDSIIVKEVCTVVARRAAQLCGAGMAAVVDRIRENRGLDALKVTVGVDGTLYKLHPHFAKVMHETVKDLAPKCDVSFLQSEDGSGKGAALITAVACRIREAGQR

[7] = Antiproliferative activity against human MIAPaCa2 cells assessed as inhibition of cell proliferation; format: functional, cell-based; settings: MIA PaCa-2
Alpha-enolase = Alpha-enolase (Homo sapiens, UniProt P06733); assay: Inhibition of ENO1 (unknown origin)
Alpha-enolase, sequence (P06733 whole entry): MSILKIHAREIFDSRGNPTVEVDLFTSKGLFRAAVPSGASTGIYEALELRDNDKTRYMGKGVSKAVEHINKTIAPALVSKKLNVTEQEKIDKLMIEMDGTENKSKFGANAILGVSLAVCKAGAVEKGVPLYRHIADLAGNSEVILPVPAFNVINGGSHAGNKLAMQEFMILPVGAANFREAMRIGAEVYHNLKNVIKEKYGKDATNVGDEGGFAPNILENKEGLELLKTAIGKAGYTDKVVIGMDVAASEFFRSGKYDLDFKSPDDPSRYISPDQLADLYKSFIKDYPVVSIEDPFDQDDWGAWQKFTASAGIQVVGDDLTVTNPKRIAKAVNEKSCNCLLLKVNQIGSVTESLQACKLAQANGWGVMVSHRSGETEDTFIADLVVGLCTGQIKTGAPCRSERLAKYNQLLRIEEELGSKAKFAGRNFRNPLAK

[8] = Growth inhibition of VHL deficient human RCC4 cells; format: functional, cell-based
[9] = Growth inhibition of VHL-positive human RCC4/VHL cells; format: functional, cell-based

T1 sequence (P14618 whole entry): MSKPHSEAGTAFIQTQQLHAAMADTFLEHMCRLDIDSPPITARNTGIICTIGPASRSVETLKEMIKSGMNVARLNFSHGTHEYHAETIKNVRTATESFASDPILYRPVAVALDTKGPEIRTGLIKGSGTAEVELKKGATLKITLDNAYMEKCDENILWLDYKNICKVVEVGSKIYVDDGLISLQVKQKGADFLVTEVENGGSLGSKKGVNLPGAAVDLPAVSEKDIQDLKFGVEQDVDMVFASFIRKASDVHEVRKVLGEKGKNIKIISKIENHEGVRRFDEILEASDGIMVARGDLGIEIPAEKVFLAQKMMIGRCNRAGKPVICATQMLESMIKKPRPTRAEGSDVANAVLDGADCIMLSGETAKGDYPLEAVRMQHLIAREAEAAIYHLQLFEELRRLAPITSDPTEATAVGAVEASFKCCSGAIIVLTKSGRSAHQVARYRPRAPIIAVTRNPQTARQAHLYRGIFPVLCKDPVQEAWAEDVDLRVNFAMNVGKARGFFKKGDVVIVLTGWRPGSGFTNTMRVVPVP

For CS(=O)(=O)N1CCc2cc(S(=O)(=O)c3ccc4c(c3)OCCO4)ccc21, the AC50 (Pyruvate kinase PKM [1]) was 45 nM.

COc1ccccc1N1CCN(C(=O)c2ccc(NS(=O)(=O)c3cccc4cccnc34)cc2)CC1 gave an AC50 (Pyruvate kinase PKM [1]) of 17 nM and an AC50 (Pyruvate kinase PKM [2]) of 45 nM.

With O=C(Oc1cccc(F)c1OC(=O)c1cccc(O)c1)c1cccc(O)c1 the inhibition (Homo sapiens) was 93%, the “growth inhibition (GI)” value [3] was 41% and the IC50 [4] was 10000 nM. It also gave an inhibition in vivo at 10 mg/kg/day (A549) of 70%.

In the case of O=C(/C=C/c1cccnc1)c1ccncc1, the IC50 [5] is reported as 22900 nM.

Compound Cc1[nH]nc(C(F)(F)F)c1Cc1sc2c(c1C(=O)N1C[C@](C)(O)CO1)c(=O)n(C)c(=O)n2C(C)C [AZD3965] has a Kd [6] of 1.6 nM.

Work on Cc1ccc(S(=O)(=O)NC[C@H]2O[C@@H](O)[C@H](NC(=O)/C=C/c3ccc(Cl)c(Cl)c3)[C@@H](O)[C@@H]2O)cc1 yielded an IC50 (Hexokinase-2) of under 316 nM.

O=C1CC(c2ccc(N3CCOCC3)cc2)(c2ccsc2)NC(=O)C1Sc1ccccc1Cl (stereo not given) showed an EC50 [7] of 250 nM.

Compound NCCOCCOCCNC(=O)Cc1ccc(Nc2nc(NCc3ccc(F)cc3)nc(NCC3CCCCC3)n2)cc1 has an IC50 (Alpha-enolase) of 576 nM.

Work on O=C(/C=C/c1ccc2ccccc2n1)c1ccncc1 yielded an IC50 [5] of 207 nM.

For NCCOCCOCCOCCOCCOCCOCCCc1ccc(S(=O)(=O)NCc2ccc(C(=O)Nc3cccnc3)cc2)cc1, the IC50 [8] was 7900 nM and the IC50 [9] was over 40000 nM.
